Measured values taken from patent US20230067910A1, “NOVEL COMPOUNDS FOR THE DIAGNOSIS, TREATMENT AND PREVENTION OF DISEASES ASSOCIATED WITH THE AGGREGATION OF ALPHA-SYNUCLEIN” (MODAG GMBH, priority 2019, published 2023).
Read-outs that look alike come from different tables or passages of the source.

Legend:
[1] = system: H4 cells overexpressing alpha-synuclein hemi-Venus fusion constructs (V1S+SV2); assay: Cellular model of aggregated alpha-synuclein-dependent toxicity, V1S+SV2 H4 cells; format: cell-based; settings: 10 μM compound, 100 μM FeCl3, 0.75% DMSO, 48 h; for inhibition at 10 µM: read-out: Change in fraction of condensed nuclei (rel. to DMSO control) [%]
Procedure: (§1) To identify potential therapeutically useful effects, compounds were tested in two cellular models of aggregated alpha-synuclein-dependent toxicity in H4 cells. These cellular models allow for the inducible overexpression of alpha-synuclein hemi-Venus fusion constructs (V1S+SV2) or full-length alpha-synuclein (the model is described in detail in: Bartels M, Weckbecker D, Kuhn P H, Ryazanov S, Leonov A, Griesinger C, Lichtenthaler S F, Bötzel K, Giese A: Iron-mediated aggregation and toxicity in a novel neuronal cell culture model with inducible alpha-synuclein expression, Sci. Rep. 2019 Jun. 24; 9(1):9100). Moreover, addition of DMSO and FeCl3 promotes the aggregation of alpha-synuclein which is associated with an increase in cytotoxicity. The cell culture assay uses these effects by determining the change in the number of cells and the change in the percentage of condensed nuclei, which is indicative of apoptosis, in order to obtain information on which compounds show the most promising effects and thus might be therapeutically useful.
(§2) In these experiments, cells were incubated with 100 μM FeCl3 and 0.75% DMSO in the presence of 10 μM anle138c as a positive control, compounds 1 to 19 (10 μM), or DMSO as a negative control. After 48 h, the cells were imaged with an OPERA high-throughput imaging system and analyzed using Acapella software (Perkin Elmer). […] A reduction in the fraction of condensed nuclei (in the absence of a strong reduction in cell number) is indicative of a beneficial therapeutic effect.

[2] = molecular target: T1, alpha-synuclein (sonicated fibrils) (Homo sapiens, UniProt P37840); assay: Modified competition binding assay, protocol 3b, reference ligand [3H]-compound 2; settings: Table 5, reference ligand [3H]-compound 2 (1 nM)
T1 construct: made in house; host or cells: E. coli
Procedure: (§3) Alpha-synuclein and tau46 were purified from E. coli according to established protocols (Nuscher B, et al., J. Biol. Chem., 2004; 279(21):21966-75), Aβ1-42 was obtained from rPeptide, Watkinsville, Ga., USA. Fibrils were prepared by aggregation of recombinant protein via constant agitation. In detail, 70 μM of alpha-synuclein mixed with 100 mM NaCl in 50 mM Tris, pH 7.0+0.02% NaN3 were incubated at 1,400 rpm, 37° C. for 96 h. 10 μM of tau46 were incubated with 0.03 mg/ml heparin in 50 mM Tris, pH=7.0 at 1,000 rpm, 37° C. for 72 h. Aβ1-42 was solved in 20 mM NaPi, pH=8.0+0.2 mM EDTA+0.02% NaN3 (Deeg A A, et al., Biochim. Biophys. Acta, 2015; 1850(9): 1884-90; Goedert M, et al. Nature, 1996; 383(6600): 550-3).
For competition binding experiments, a fixed concentration of recombinant αSYN fibrils (sonicated, 15 nM/well) was incubated with 1 nM [^3H]-compound 1 or [3H]-compound 2 and decreasing concentrations of a serial dilution of non-labeled competitor (serial dilution 1:4 or 1:3.5 or 1:3 providing the concentration ranges of non-labeled competitor 1 μM-[…] 1 μM-4 nM or 1 μM-[…], respectively) in 30 mM Tris-HCl, 10% ethanol, 0.05% Tween20, pH 7.4 in a total volume of 200 μL/well. Plates were incubated for 4.5 hours at RT covered by removable sealing tape (PerkinElmer, Waltham, Mass., USA).
Filtration and readout were performed as described for saturation binding assays. [^3H]-labeled ligand binding [in CMP] was plotted against increasing competitor concentrations and data points were fitted using non-linear regression analysis to calculate the IC50 and Ki values (GraphPad Software, Inc., Version 7.03, La Jolla (Calif.), USA). In the competition binding assay with sonicated recombinant αSYN fibrils, the calculation of Ki values was done based on KD values of 0.6 nM and 0.2 nM for compound 1 and compound 2, respectively.
(§4) The fibril competition assay provides Ki values. Ki is a quantitative measure that represents the concentration of the non-radioactive tested compound (competitor ligand) required to replace 50% of a reference compound, in this case [H]-compound 1 (1 nM) or [H]-compound 2 (1 nM), which is bound to the target structures (1 nM), in our case recombinant alpha-synuclein and tau46 fibrils. This assay is suitable for a screening of non-radioactive ligands.

[3] = molecular target: T2, alpha-synuclein (fibrils) (Homo sapiens, UniProt P37840); assay: Competition binding assay, protocol 3a, reference ligand [3H]-compound 1, alpha-synuclein fibrils; settings: reference ligand [3H]-compound 1 (1 nM)
T2 construct: made in house; host or cells: E. coli
Procedure: as §3
A fixed concentration of sonicated human recombinant αSYN (200 nM/well) or tau46 (208 nM/well) fibrils diluted in phosphate buffered saline (PBS) were incubated in low binding plates (96 well micro test plate, Ratiolab GmbH, Dreieich, Germany) together with 1 nM [^3H]-compound 1 and 1:4 serial dilutions of the cold compound of interest starting from 1 μM diluted in 50 mM Tris-base, 10% EtOH, 0.05% Tween20, pH 7.4. For the calculation of Ki values the KD value of compound 1 toward sonicated human recombinant αSYN fibrils was set to 3 nM.
Assay plates were incubated under agitation at 37° C. for 2 h covered by plastic foil (Resealable tape, PerkinElmer, Waltham, Mass., USA). Prior to harvesting, a filter (Printed filtermat B, PerkinElmer, Waltham, Mass., USA) was incubated with 5 mg/mL polyethylenimine (PEI, Poly(ethyleneimine) solution, Sigma Aldrich Chemie GmbH, Taufkirchen, Germany) at 4° C. for 30 min. After incubation, bound and free ligands were separated by vacuum filtration using a harvester (Filtermate harvester, PerkinElmer, Waltham, Mass., USA). The filter was washed three times with buffer cooled to 4° C. and subsequently dried in the microwave for 2 min at medium power. The filter was sealed in a plastic bag (Sample bag for MicroBeta®, PerkinElmer, Waltham, Mass., USA) together with added scintillator (BETAPLATE SCINT, PerkinElmer, Waltham, Mass., USA). Accumulation of tritium was counted in a liquid scintillation counter (Wallac MicroBeta® TriLux, 1450 LSC & Luminescence Counter, PerkinElmer, Waltham, Mass., USA) immediately. Radioactivity was plotted against the increasing tritium-labeled compound or cold compound concentrations. Data points were fitted using nonlinear regression analysis in GraphPad Prism (GraphPad Software, Inc., Version 7.03, La Jolla, Calif., USA).
as §4

[4] = system: H4 cells overexpressing full-length alpha-synuclein; assay: Cellular model of aggregated alpha-synuclein-dependent toxicity, full-length alpha-synuclein H4 cells; format: cell-based; settings: 10 μM compound, 100 μM FeCl3, 0.75% DMSO, 48 h; for inhibition at 10 µM: read-out: Change in fraction of condensed nuclei (rel. to DMSO control) [%]
Procedure: as §1, §2

[5] = molecular target: T1, alpha-synuclein (sonicated fibrils); assay: Modified competition binding assay, protocol 3b, reference ligand [3H]-compound 1; settings: Table 4b, reference ligand [3H]-compound 1 (1 nM), read-out: Ki (nM) alpha-synuclein (sonicated fibrils)
Procedure: Fibrils were prepared by aggregation of recombinant protein via constant agitation. In detail, 70 μM of alpha-synuclein mixed with 100 mM NaCl in 50 mM Tris, pH 7.0+0.02% NaN3 were incubated at 1,400 rpm, 37° C. for 96 h. 10 μM of tau46 were incubated with 0.03 mg/ml heparin in 50 mM Tris, pH=7.0 at 1,000 rpm, 37° C. for 72 h.
Plates were incubated for 4.5 hours at RT covered by removable sealing tape (PerkinElmer, Waltham, Mass., USA).
Filtration and readout were performed as described for saturation binding assays.
The fibril competition assay provides Ki values. […] This assay is suitable for a screening of non-radioactive ligands.

[6] = Experiment A, read-out: Ki (nM) alpha-synuclein (fibrils)
[7] = Experiment B, read-out: Ki (nM) alpha-synuclein (sonicated fibrils)

Structure (SMILES) | Ki [2] [nM] | Ki [3, 6] [nM] | Ki [3, 7] [nM] | Ki [5] [nM] | Change in cell number (rel. to DMSO control) [%] [1] [%] | inhibition at 10 µM [1] [%] | Change in cell number (rel. to DMSO control) [%] [4] [%] | inhibition at 10 µM [4] [%]
CN(C)c1ncc(-c2cc(-c3ccnc(Br)c3)[nH]n2)cn1 [Compound 6, 5-[5-(2-bromopyridin-4-yl)-1H-pyrazol-3-yl]-N,N-dimethylpyrimidin-2-amine] | 8.9 | 24 | > 300 |  | −34.0 | -53.6 | −31.0 | -5.4
Nc1ccc(-c2cc(-c3ccnc(Br)c3)[nH]n2)cc1 [Compound 7, 4-[5-(2-bromopyridin-4-yl)-1H-pyrazol-3-yl]aniline] |  |  |  |  | −30.8 | 46.1 | −37.8 | 62.5
CN(C)c1ncc(-c2cc(-c3ccnc(F)c3)[nH]n2)cn1 [Compound 8, 5-[5-(2-fluoropyridin-4-yl)-1H-pyrazol-3-yl]-N,N-dimethylpyrimidin-2-amine] | 9.9 | 43 |  |  | −4.5 | -14.2 | −5.7 | -10.7

The next lines start with results.

Ki [2] [nM] | Ki [3, 6] [nM] | Ki [3, 7] [nM] | Ki [5] [nM] | Structure (SMILES) | Change in cell number (rel. to DMSO control) [%] [1] [%] | inhibition at 10 µM [1] [%] | Change in cell number (rel. to DMSO control) [%] [4] [%] | inhibition at 10 µM [4] [%]
13 | 27 | > 60 |  | CN(C)c1ncc(-c2cc(-c3cccc(Br)c3)[nH]n2)cn1 [Compound 5, 5-[5-(3-bromophenyl)-1H-pyrazol-3-yl]-N,N-dimethylpyrimidin-2-amine] | −12.4 | 27.3 | −14.6 | 34.2
7.4 |  |  |  | Fc1cccc(-c2cc(-c3ccc4c(c3)OCO4)n[nH]2)n1 [Compound 11, 2-[3-(1,3-benzodioxol-5-yl)-1H-pyrazol-5-yl]-6-fluoropyridine] | −17.4 | -123 | −20.0 | -13.7
189 |  |  |  | Fc1cncc(-c2cc(-c3ccc4c(c3)OCO4)n[nH]2)c1 [Compound 13, 3-[3-(1,3-benzodioxol-5-yl)-1H-pyrazol-5-yl]-5-fluoropyridine] | −6.1 | -46 | −18.1 | 55.5
1.3 |  |  |  | Clc1cc(-c2cc(-c3ccc4c(c3)OCO4)n[nH]2)ccn1 [Compound 14, 4-[3-(1,3-benzodioxol-5-yl)-1H-pyrazol-5-yl]-2-chloropyridine] | −21.9 | -61 | −32.0 | 47.3
6.6 |  |  | 6.7 | Brc1cccc(-c2cc(-c3ccc4c(c3)OCO4)n[nH]2)n1 [Compound 15, 2-[3-(1,3-benzodioxol-5-yl)-1H-pyrazol-5-yl]-6-bromopyridine] | −11.3 | -23.1 | −11.2 | -20.3
